Data as given in patent publication US6348484B1, “Stereoisomeric indole compounds, process for the preparation of the same, and use thereof” (Lead Chemical Co., Ltd., priority 1997, dated 2002).

Tests used:
[1] = system: lipid peroxidation of microsome in rat liver; experiment: Inhibitory action against lipid peroxidation of microsome in rat liver (TBA reactive substances, absorption at 535 nm); assay type: biochemical
Description: 10 μl of microsome fraction (protein concentration; 30-50 mg/ ml) prepared from rat liver and 10 μl of a solution of a compound to be tested in ethanol are added to 0.5 ml of 0.1 M Tris hydrochloride buffer (pH7.5) containing 14 mM MgCl2, which is mixed and preincubated at 37° C. for 5 minutes. Then, 10 μl of 0.2M adenosine diphosphate, 10 μl of 12 mM FeSO4, 40 μl of NADPH reproduced system and distilled water are added to make 1 m1, mixed and reacted at 37° C. for 10 minutes.

| melting point [°C] | Inhibiting Concentration (IC50 μg/ml) ([1]; Example 7, rat liver microsome fraction, ADP/FeSO4/NADPH system, 37° C. for 10 minutes) [µg/mL] | Inhibiting Concentration (IC50 μg/ml) ([1]; Example 8, method of Example 7, deamino form compared with synthetic (1″S, 3″S) Martefragin A) [µg/mL] | Compound |
| --- | --- | --- | --- |
| 138.5 to 139.5 |  |  | CC[C@H](C)CCc1nc(COOCc2ccccc2)c(-c2c[nH]c3ccccc23)o1 [compound 55] |
|  | 1.07 | 1.35 | (1″S, 3″S) Martefragin A [(1″S, 3″S)-19] |
